Data taken from ChEMBL document CHEMBL3885861, “Open TG-GATES”.

Species on record: Rattus norvegicus
Assay: Open TG-GATES - Regimen: Daily Repeat
Format: toxicity, organism-based, Sprague-Dawley
Design: regimen Daily Repeat, gender Male, age 6 weeks
Conditions: in vivo, po, route gavage; for Bas / Eos / Fbg / Hb / MCH / MCHC / MCV / Mono / Neu / Plat / RBC / Ret / WBC / APTT / Ht / Lym / PT: tissue Blood; for KIDNEY_L / KIDNEY_R / KIDNEY_TOTAL: tissue Kidney; for LIVER: tissue Liver; for ALP / ALT / AST / BUN / CRE / Ca / DBIL / GLC / IP / K / LDH / Na / PL / RALB / TBIL / TC / TP / gamma-GTP / TG: tissue Plasma
[1] = 0 mg/kg, 72 h, dose level Control, time 3 day
[2] = 0 mg/kg, […], dose level Control, time 7 day
[3] = 0 mg/kg, […], dose level Control, time 14 day
[4] = 0 mg/kg, […], dose level Control, time 28 day
[5] = 100 mg/kg, 72 h, dose level Low, time 3 day
[6] = 100 mg/kg, […], dose level Low, time 7 day
[7] = 100 mg/kg, […], dose level Low, time 14 day
[8] = 100 mg/kg, […], dose level Low, time 28 day

## O=C(O)c1cn(C2CC2)c2cc(N3CCNCC3)c(F)cc2c1=O [CIPROFLOXACIN]
[1]
  TERMINAL_BW: 198.1 g
  Bas: 0%
  Eos: 1.2%
  Fbg: 228 mg/dL
  Hb: 13.2 g/dL
  MCH: 22.2 pg
  MCHC: 33.5%
  MCV: 66.2 fL
  Mono: 7.6%
  Neu: 12%
  Plat: 99.9 x10_4/uL
  RBC: 595 x10_4/ul
  Ret: 8.5%
  WBC: 105.1 x10_2/uL
  KIDNEY_L: 0.9 g
  KIDNEY_R: 0.9 g
  KIDNEY_TOTAL: 1.8 g
  LIVER: 9.9 g
  ALP: 993.2 IU/L
  ALT: 38.8 IU/L
  AST: 66 IU/L
  BUN: 17.2 mg/dL
  CRE: 0.5 mg/dL
  Ca: 11.4 mg/dL
  DBIL: 0.002 mg/dL
  GLC: 182 mg/dL
  IP: 7.9 mg/dL
  K: 5.1 meq/L
  LDH: 88.4 IU/L
  Na: 139.4 meq/L
  PL: 157 mg/dL
  RALB: 4 g/dL
  TBIL: 0.3 mg/dL
  TC: 84 mg/dL
  TP: 5.9 g/dL
  gamma-GTP: 1.8 IU/L
[2]
  TERMINAL_BW: 237.8 g
  APTT: 16.9 s
  Bas: 0%
  Eos: 0.8%
  Fbg: 230.2 mg/dL
  Hb: 12.6 g/dL
  Ht: 39.6%
  Lym: 82.2%
  MCH: 20.8 pg
  MCHC: 31.8%
  MCV: 65.5 fL
  Mono: 7%
  Neu: 10%
  PT: 11.9 s
  Plat: 101.9 x10_4/uL
  RBC: 605.2 x10_4/ul
  Ret: 6.9%
  WBC: 121.2 x10_2/uL
  KIDNEY_L: 1.1 g
  KIDNEY_R: 1.1 g
  KIDNEY_TOTAL: 2.1 g
  LIVER: 11.7 g
  ALP: 938.8 IU/L
  ALT: 31.6 IU/L
  AST: 61.8 IU/L
  BUN: 19.6 mg/dL
  CRE: 0.5 mg/dL
  Ca: 11.3 mg/dL
  DBIL: 0.01 mg/dL
  GLC: 186.8 mg/dL
  IP: 8.6 mg/dL
  K: 5 meq/L
  LDH: 67 IU/L
  Na: 140.6 meq/L
  PL: 158.4 mg/dL
  RALB: 3.9 g/dL
  TBIL: 0.3 mg/dL
  TC: 90.2 mg/dL
  TG: 93.6 mg/dL
  TP: 5.7 g/dL
  gamma-GTP: 1.2 IU/L
[3]
  TERMINAL_BW: 285 g
  APTT: 16.4 s
  Bas: 0%
  Eos: 1%
  Fbg: 250.2 mg/dL
  Hb: 14 g/dL
  Ht: 42.3%
  MCH: 21 pg
  MCHC: 33.1%
  MCV: 63.3 fL
  Mono: 4.4%
  Neu: 11%
  PT: 9.8 s
  Plat: 111.2 x10_4/uL
  RBC: 669.4 x10_4/ul
  Ret: 5.7%
  WBC: 131.2 x10_2/uL
  KIDNEY_L: 1.2 g
  KIDNEY_R: 1.2 g
  KIDNEY_TOTAL: 2.4 g
  LIVER: 13.3 g
  ALP: 844.4 IU/L
  ALT: 31.4 IU/L
  AST: 58.4 IU/L
  BUN: 18.8 mg/dL
  CRE: 0.6 mg/dL
  DBIL: 0.006 mg/dL
  GLC: 185.6 mg/dL
  IP: 7.9 mg/dL
  K: 4.7 meq/L
  LDH: 80.6 IU/L
  Na: 138.8 meq/L
  PL: 172.8 mg/dL
  RALB: 4.1 g/dL
  TBIL: 0.2 mg/dL
  TC: 82.2 mg/dL
  TG: 150.6 mg/dL
  TP: 6.3 g/dL
  gamma-GTP: 1.2 IU/L
[4]
  TERMINAL_BW: 358.5 g
  APTT: 17.2 s
  Bas: 0%
  Eos: 1%
  Fbg: 235.2 mg/dL
  Hb: 14.8 g/dL
  Ht: 44%
  MCH: 19.4 pg
  MCHC: 33.6%
  MCV: 57.8 fL
  Mono: 3.4%
  Neu: 11%
  PT: 11.3 s
  Plat: 107.5 x10_4/uL
  RBC: 762.2 x10_4/ul
  Ret: 2.8%
  WBC: 132.8 x10_2/uL
  KIDNEY_L: 1.3 g
  KIDNEY_R: 1.3 g
  KIDNEY_TOTAL: 2.5 g
  ALP: 566.6 IU/L
  ALT: 28.8 IU/L
  AST: 57.6 IU/L
  BUN: 18.8 mg/dL
  CRE: 0.4 mg/dL
  Ca: 10.7 mg/dL
  DBIL: 0.048 mg/dL
  GLC: 195.6 mg/dL
  IP: 7 mg/dL
  K: 4.3 meq/L
  LDH: 94.4 IU/L
  Na: 140.2 meq/L
  PL: 150.6 mg/dL
  RALB: 4.1 g/dL
  TBIL: 0.3 mg/dL
  TC: 75.4 mg/dL
  TG: 126.4 mg/dL
  TP: 6.6 g/dL
  gamma-GTP: 1.4 IU/L
[5]
  TERMINAL_BW: 197.9 g
  APTT: 16.8 s
  Bas: 0%
  Eos: 1%
  Fbg: 236.3 mg/dL
  Hb: 13.2 g/dL
  Ht: 39.6%
  MCV: 63.9 fL
  Mono: 6.2%
  Neu: 13%
  Plat: 90 x10_4/uL
  RBC: 621.4 x10_4/ul
  Ret: 6.4%
  WBC: 94.6 x10_2/uL
  KIDNEY_L: 0.9 g
  KIDNEY_R: 0.9 g
  KIDNEY_TOTAL: 1.8 g
  LIVER: 8.9 g
  ALP: 806.8 IU/L
  ALT: 44.4 IU/L
  AST: 64 IU/L
  CRE: 0.5 mg/dL
  DBIL: 0.012 mg/dL
  GLC: 182 mg/dL
  IP: 8.4 mg/dL
  K: 5.3 meq/L
  LDH: 83.2 IU/L
  Na: 139 meq/L
  PL: 140.6 mg/dL
  RALB: 3.8 g/dL
  TBIL: 0.3 mg/dL
  TC: 78.6 mg/dL
  TG: 76.6 mg/dL
  TP: 5.6 g/dL
  gamma-GTP: 1.6 IU/L
[6]
  TERMINAL_BW: 227.7 g
  Bas: 0%
  Eos: 0.8%
  Fbg: 221.6 mg/dL
  Hb: 12.9 g/dL
  Ht: 38.6%
  Lym: 80%
  MCH: 21.2 pg
  MCV: 63.8 fL
  Mono: 5.8%
  Neu: 13.8%
  Plat: 94 x10_4/uL
  RBC: 605.6 x10_4/ul
  Ret: 6.4%
  WBC: 126.8 x10_2/uL
  KIDNEY_L: 1 g
  KIDNEY_R: 1 g
  KIDNEY_TOTAL: 2.1 g
  LIVER: 10.7 g
  ALP: 932.4 IU/L
  ALT: 37.2 IU/L
  AST: 65.8 IU/L
  BUN: 18.2 mg/dL
  CRE: 0.5 mg/dL
  Ca: 11.4 mg/dL
  DBIL: 0 mg/dL
  GLC: 184 mg/dL
  IP: 8.4 mg/dL
  K: 4.9 meq/L
  LDH: 56 IU/L
  Na: 139.8 meq/L
  PL: 149.8 mg/dL
  RALB: 3.9 g/dL
  TBIL: 0.3 mg/dL
  TG: 74.8 mg/dL
  TP: 5.8 g/dL
  gamma-GTP: 1.6 IU/L
[7]
  TERMINAL_BW: 280.3 g
  APTT: 16.3 s
  Bas: 0%
  Eos: 0.8%
  Fbg: 243.6 mg/dL
  Hb: 14 g/dL
  Ht: 41.8%
  Lym: 85.8%
  MCHC: 33.4%
  MCV: 61.8 fL
  Mono: 5.4%
  Neu: 8.2%
  PT: 10.2 s
  Plat: 102.2 x10_4/uL
  RBC: 678.2 x10_4/ul
  Ret: 6.3%
  WBC: 155.4 x10_2/uL
  KIDNEY_L: 1.1 g
  KIDNEY_R: 1.1 g
  KIDNEY_TOTAL: 2.3 g
  ALP: 887.8 IU/L
  ALT: 33 IU/L
  AST: 66.4 IU/L
  BUN: 21.2 mg/dL
  CRE: 0.5 mg/dL
  Ca: 10.9 mg/dL
  DBIL: 0.022 mg/dL
  GLC: 195.6 mg/dL
  IP: 8.4 mg/dL
  K: 4.9 meq/L
  LDH: 88 IU/L
  Na: 139.2 meq/L
  PL: 175 mg/dL
  RALB: 4 g/dL
  TBIL: 0.3 mg/dL
  TC: 89 mg/dL
  TG: 128 mg/dL
  TP: 6.1 g/dL
  gamma-GTP: 2.2 IU/L
[8]
  TERMINAL_BW: 387.5 g
  APTT: 17.3 s
  Bas: 0%
  Eos: 1%
  Fbg: 233.2 mg/dL
  Hb: 14.7 g/dL
  Ht: 44.2%
  Lym: 85.2%
  MCH: 19.8 pg
  MCHC: 33.4%
  MCV: 59.3 fL
  Mono: 4.4%
  Neu: 9.4%
  PT: 11.4 s
  Plat: 105.1 x10_4/uL
  RBC: 746.2 x10_4/ul
  Ret: 3%
  WBC: 131.4 x10_2/uL
  KIDNEY_L: 1.4 g
  KIDNEY_R: 1.4 g
  KIDNEY_TOTAL: 2.8 g
  LIVER: 15.3 g
  ALP: 630 IU/L
  ALT: 29 IU/L
  AST: 54.2 IU/L
  BUN: 17.8 mg/dL
  CRE: 0.4 mg/dL
  Ca: 11 mg/dL
  DBIL: 0.024 mg/dL
  GLC: 185.4 mg/dL
  IP: 7.5 mg/dL
  K: 4.6 meq/L
  LDH: 75.6 IU/L
  Na: 140 meq/L
  PL: 141.6 mg/dL
  RALB: 4 g/dL
  TBIL: 0.3 mg/dL
  TC: 72.8 mg/dL
  TG: 108.8 mg/dL
  TP: 6.4 g/dL
  gamma-GTP: 1.4 IU/L
300 mg/kg, 72 h, dose level Middle, time 3 day
  TERMINAL_BW: 198.3 g
